Test results published in patent US20200392150A1, “Diaryl-B-Lactam Compound and Preparation Method and Pharmaceutical Use Thereof” (Fudan University, priority 2016, published 2020).
Structures can show the parent of a compound that is named as a salt. Where two headings read alike, the source gives them in different places.

How the values were obtained:
[1] = test system: A2780; test: In vitro cell growth inhibition assay (MTT); format: cell-based, human; details: read-out: IC50 A2780
Procedure, shortened: (§1)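 5000 cells/well, overnight attachment; compounds 48 h (vehicle 0.2% DMSO); MTT 0.5 mg/mL, 4 h, 37° C; formazan in DMSO; A540. IC50 from growth inhibition rates.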

[2] = test system: Hela; test: In vitro cell growth inhibition assay (MTT); format: cell-based, human; details: 48 h, read-out: IC50 Hela
Procedure, shortened: as §1

[3] = test system: MDA-MB-231; test: In vitro cell growth inhibition assay (MTT); format: cell-based, human; details: read-out: IC50 MDA-MB-231
Procedure, shortened: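 Following overnight adherence of 5000 cells per well, compounds or 0.2% DMSO were applied for 48 h. Medium was then swapped for 0.5 mg/mL MTT medium (4 h, 37° C), crystals dissolved in DMSO, and plates read at 540 nm.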

[4] = test system: SKOV3; test: In vitro cell growth inhibition assay (MTT); format: cell-based, human; details: read-out: IC50 SKOV3
Procedure, shortened: as §1

[5] = A2780 human ovarian cancer cell line, 48 h, MTT
[6] = Hela human cervical cancer cell line, MTT
[7] = MDA-MB-231 human breast cancer cell line, 48 h, MTT
[8] = SK-OV-3, SKOV-3 human ovarian cancer cell line, 48 h, MTT

SMILES: C=C1C(=O)N(c2cc(OC)c(OC)c(OC)c2)[C@H]1c1ccc(OC)c(OS(=O)(=O)c2ccc(OC)c(OC)c2)c1 (as salt: benzenesulfonate) [Compound 33, (S)-2-methoxy-5-(3-methylene-4-oxo-1-(3,4,5-trimethoxyphenyl)azetidin-2-yl)phenyl 3,4-dimethoxybenzenesulfonate]
- melting point: 70 to 71 °C

SMILES: C=C1C(=O)N(c2cc(OC)c(OC)c(OC)c2)[C@H]1c1ccc(OC)c(OS(=O)(=O)Cc2ccccc2)c1 (as salt: methanesulfonate) [Compound 32, (S)-2-methoxy-5-(3-methylene-4-oxo-1-(3,4,5-trimethoxyphenyl)azetidin-2-yl)phenyl phenylmethanesulfonate]
- melting point: 58 to 59 °C

SMILES: C=C1C(=O)N(c2cc(OC)c(OC)c(OC)c2)[C@H]1c1ccc(OC)c(OC)c1 [Compound 2, (S)-4-(3,4-dimethoxyphenyl)-3-methylene-1-(3,4,5-trimethoxyphenyl)azetidin-2-one]
- IC50 [1, 5]: 854 nM
- IC50 [2, 6]: 3160 nM
- IC50 [3, 7]: 1020 nM
- IC50 [4, 8]: 2260 nM
- melting point: 138 to 139 °C

SMILES: C=C1C(=O)N(c2cc(OC)c(OC)c(OC)c2)[C@H]1c1ccc(OC)c(OCC)c1 [Compound 3, (S)-4-(3-ethoxy-4-methoxyphenyl)-3-methylene-1-(3,4,5-trimethoxyphenyl)azetidin-2-one]
- IC50 [1, 5]: 854 nM
- IC50 [2, 6]: 2030 nM
- IC50 [3, 7]: 958 nM
- IC50 [4, 8]: 1140 nM
- melting point: 92 to 93 °C

SMILES: C=C1C(=O)N(c2cc(OC)c(OC)c(OC)c2)[C@H]1c1ccc(OC)c(OCCC)c1 [Compound 4, (S)-4-(4-methoxy-3-propoxyphenyl)-3-methylene-1-(3,4,5-trimethoxyphenyl)azetidin-2-one]
- IC50 [1, 5]: 3420 nM
- IC50 [2, 6]: 6890 nM
- IC50 [3, 7]: 5620 nM
- IC50 [4, 8]: 5260 nM
- melting point: 90 to 91 °C

SMILES: C=C1C(=O)N(c2cc(OC)c(OC)c(OC)c2)[C@H]1c1ccc(OC)c(OC(C)C)c1 [Compound 5, (S)-4-(3-isopropoxy-4-methoxyphenyl)-3-methylene-1-(3,4,5-trimethoxyphenyl)azetidin-2-one]
- IC50 [1, 5]: 11300 nM
- IC50 [2, 6]: > 20000 nM
- IC50 [3, 7]: 15900 nM
- IC50 [4, 8]: 18000 nM
- melting point: 146 to 147 °C

SMILES: C=CCOc1cc([C@H]2C(=C)C(=O)N2c2cc(OC)c(OC)c(OC)c2)ccc1OC [Compound 6, (S)-4-(3-(allyloxy)-4-methoxyphenyl)-3-methylene-1-(3,4,5-trimethoxyphenyl)azetidin-2-one]
- IC50 [1, 5]: 1250 nM
- IC50 [2, 6]: 1150 nM
- IC50 [3, 7]: 883 nM
- IC50 [4, 8]: 1480 nM
- melting point: 92 to 93 °C

SMILES: C#CCOc1cc([C@H]2C(=C)C(=O)N2c2cc(OC)c(OC)c(OC)c2)ccc1OC [Compound 7, (S)-4-(4-methoxy-3-(prop-2-yn-1-yloxy)phenyl)-3-methylene-1-(3,4,5-trimethoxyphenyl)azetidin-2-one]
- IC50 [1, 5]: 429 nM
- IC50 [2, 6]: 1050 nM
- IC50 [3, 7]: 1200 nM
- IC50 [4, 8]: 841 nM
- melting point: 106 to 107 °C

SMILES: C=C1C(=O)N(c2cc(OC)c(OC)c(OC)c2)[C@H]1c1ccc(OC)c(OCCCl)c1 [Compound 10, (S)-4-(3-(2-chloroethoxy)-4-methoxyphenyl)-3-methylene-1-(3,4,5-trimethoxyphenyl)azetidin-2-one]
- IC50 [1, 5]: 409 nM
- IC50 [2, 6]: 887 nM
- IC50 [3, 7]: 608 nM
- IC50 [4, 8]: 864 nM
- melting point: 91 to 92 °C

SMILES: C=C1C(=O)N(c2cc(OC)c(OC)c(OC)c2)[C@H]1c1ccc(OC)c(OCCCCl)c1 [Compound 11, (S)-4-(3-(3-chloropropoxy)-4-methoxyphenyl)-3-methylene-1-(3,4,5-trimethoxyphenyl)azetidin-2-one]
- IC50 [1, 5]: 2180 nM
- IC50 [2, 6]: 6040 nM
- IC50 [3, 7]: 4150 nM
- IC50 [4, 8]: 4070 nM
- melting point: 72 to 73 °C

SMILES: C=C1C(=O)N(c2cc(OC)c(OC)c(OC)c2)[C@H]1c1ccc(OC)c(OCCN2CCOCC2)c1 [Compound 15, (S)-4-(4-methoxy-3-(2-morpholinoethoxy)phenyl)-3-methylene-1-(3,4,5-trimethoxyphenyl)azetidin-2-one]
- IC50 [1, 5]: > 10000 nM
- IC50 [2, 6]: > 10000 nM
- IC50 [3, 7]: > 10000 nM
- IC50 [4, 8]: > 10000 nM
- melting point: 86 to 87 °C

SMILES: C=C1C(=O)N(c2cc(OC)c(OC)c(OC)c2)[C@H]1c1ccc(OC)c(OC(=O)c2ccccc2)c1 [Compound 18, (S)-2-methoxy-5-(3-methylene-4-oxo-1-(3,4,5-trimethoxyphenyl)azetidin-2-yl)phenyl benzoate]
- IC50 [1, 5]: 287 nM
- IC50 [2, 6]: 386 nM
- IC50 [3, 7]: 637 nM
- IC50 [4, 8]: 484 nM
- melting point: 151 to 152 °C

SMILES: C=C1C(=O)N(c2cc(OC)c(OC)c(OC)c2)[C@H]1c1ccc(OC)c(OC(=O)c2ccc([N+](=O)[O-])cc2)c1 [Compound 19, (S)-2-methoxy-5-(3-methylene-4-oxo-1-(3,4,5-trimethoxyphenyl)azetidin-2-yl)phenyl 4-nitrobenzoate]
- IC50 [1, 5]: 55 nM
- IC50 [2, 6]: 102 nM
- IC50 [3, 7]: 105 nM
- IC50 [4, 8]: 84 nM
- melting point: 88 to 89 °C

SMILES: C=C1C(=O)N(c2cc(OC)c(OC)c(OC)c2)[C@H]1c1ccc(OC)c(OC(=O)c2ccc(F)cc2)c1 [Compound 20, (S)-2-methoxy-5-(3-methylene-4-oxo-1-(3,4,5-trimethoxyphenyl)azetidin-2-yl)phenyl 4-fluorobenzoate]
- IC50 ([1]; Homo sapiens, A2780, 48 h): 169 nM
- IC50 ([2]; Homo sapiens, HeLa): 75 nM
- IC50 ([3]; Homo sapiens, MDA-MB-231, 48 h): 223 nM
- IC50 ([4]; Homo sapiens, SK-OV-3, 48 h): 114 nM
- melting point: 185 to 186 °C

SMILES: C=C1C(=O)N(c2cc(OC)c(OC)c(OC)c2)[C@H]1c1ccc(OC)c(OC(=O)c2cccnc2)c1 [Compound 22, (S)-2-methoxy-5-(3-methylene-4-oxo-1-(3,4,5-trimethoxyphenyl)azetidin-2-yl)phenyl nicotinate]
- IC50 [1, 5]: 112 nM
- IC50 [2, 6]: 115 nM
- IC50 [3, 7]: 151 nM
- IC50 [4, 8]: 75 nM
- melting point: 113 to 114 °C

SMILES: C=C1C(=O)N(c2cc(OC)c(OC)c(OC)c2)[C@H]1c1ccc(OC)c(OC(=O)C2CC2)c1 [Compound 23, (S)-2-methoxy-5-(3-methylene-4-oxo-1-(3,4,5-trimethoxyphenyl)azetidin-2-yl)phenyl cyclopropanecarboxylate]
- IC50 ([1]; Homo sapiens, A2780, 48 h): 129 nM
- IC50 ([2]; Homo sapiens, HeLa): 142 nM
- IC50 ([3]; Homo sapiens, MDA-MB-231, 48 h): 207 nM
- IC50 ([4]; Homo sapiens, SK-OV-3, 48 h): 108 nM
- melting point: 68 to 69 °C

SMILES: C=CC(=O)Oc1cc([C@H]2C(=C)C(=O)N2c2cc(OC)c(OC)c(OC)c2)ccc1OC [Compound 24, (S)-2-methoxy-5-(3-methylene-4-oxo-1-(3,4,5-trimethoxyphenyl)azetidin-2-yl)phenyl acrylate]
- IC50 [1, 5]: 328 nM
- IC50 [2, 6]: 490 nM
- IC50 [3, 7]: 565 nM
- IC50 [4, 8]: 522 nM
- melting point: 109 to 110 °C

SMILES: C=C1C(=O)N(c2cc(OC)c(OC)c(OC)c2)[C@H]1c1ccc(OC)c(OC(=O)N2CCOCC2)c1 [Compound 25, (S)-2-methoxy-5-(3-methylene-4-oxo-1-(3,4,5-trimethoxyphenyl)azetidin-2-yl)phenyl morpholine-4-carboxylate]
- IC50 [1, 5]: > 10000 nM
- IC50 [2, 6]: > 10000 nM
- IC50 [3, 7]: > 10000 nM
- IC50 [4, 8]: > 10000 nM
- melting point: 82 to 83 °C

SMILES: C=C1C(=O)N(c2cc(OC)c(OC)c(OC)c2)[C@H]1c1ccc(OC)c(OS(N)(=O)=O)c1 [Compound 26, (S)-2-methoxy-5-(3-methylene-4-oxo-1-(3,4,5-trimethoxyphenyl)azetidin-2-yl)phenyl sulfamate]
- IC50 [1, 5]: 133 nM
- IC50 [2, 6]: 224 nM
- IC50 [3, 7]: 240 nM
- IC50 [4, 8]: 177 nM
- melting point: 199 to 200 °C

SMILES: C=C1C(=O)N(c2cc(OC)c(OC)c(OC)c2)[C@H]1c1ccc(OC)c(OS(=O)(=O)CCN2C(=O)c3ccccc3C2=O)c1 [Compound 28, (S)-2-methoxy-5-(3-methylene-4-oxo-1-(3,4,5-trimethoxyphenyl)azetidin-2-yl)phenyl 2-(1,3-dioxoisoindolin-2-yl)ethanesulfonate]
- IC50 [1, 5]: 16800 nM
- IC50 [2, 6]: > 20000 nM
- IC50 [3, 7]: > 20000 nM
- IC50 [4, 8]: 13300 nM
- melting point: 69 to 70 °C

SMILES: C=C1C(=O)N(c2cc(OC)c(OC)c(OC)c2)[C@H]1c1ccc(OC)c(OS(=O)(=O)N2CCOCC2)c1 [Compound 29, (S)-2-methoxy-5-(3-methylene-4-oxo-1-(3,4,5-trimethoxyphenyl)azetidin-2-yl)phenyl morpholine-4-sulfonate]
- IC50 [1, 5]: 12900 nM
- IC50 [2, 6]: 19300 nM
- IC50 [3, 7]: > 20000 nM
- IC50 [4, 8]: 15600 nM
- melting point: 134 to 135 °C

SMILES: C=C1C(=O)N(c2cc(OC)c(OC)c(OC)c2)[C@H]1c1ccc(OC)c(OS(=O)(=O)CCCC)c1 [Compound 31, (S)-2-methoxy-5-(3-methylene-4-oxo-1-(3,4,5-trimethoxyphenyl)azetidin-2-yl)phenyl butane-1-sulfonate]
- IC50 [1, 5]: 5320 nM
- IC50 [2, 6]: 14000 nM
- IC50 [3, 7]: 7290 nM
- IC50 [4, 8]: 10200 nM
- melting point: 99 to 100 °C

SMILES: C=C1C(=O)N(c2cc(OC)c(OC)c(OC)c2)[C@H]1c1ccc(OC)c(OC(=O)CNC(=O)OC(C)(C)C)c1 [Compound 34, (S)-2-methoxy-5-(3-methylene-4-oxo-1-(3,4,5-trimethoxyphenyl)azetidin-2-yl)phenyl 2-((tert-butoxycarbonyl)amino)acetate]
- IC50 [1, 5]: 240 nM
- IC50 [2, 6]: 62 nM
- IC50 [3, 7]: 335 nM
- IC50 [4, 8]: 264 nM
- melting point: 88 to 89 °C
